These results are taken from PubChem BioAssay (NCI).

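Interpolation was linear, between the two tested concentrations surrounding the appropriate level; five concentrations were tested over 48 hours in 96-well plates. Abbreviation: GI50, concentration required for 50% inhibition of growth. At the TGI there is no net growth.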

Some test systems named below: DU-145 prostate; KM12 colon; MDA-MB-435; NCI-H522 lung; OVCAR-5 ovarian; SK-OV-3 ovarian; UO-31 renal.
Common to all, as to assay: DTP human tumour cell line panel, 48 h

The term GI50 denotes the concentration giving 50% growth inhibition. A word on the TGI: it is the concentration at which net growth stops. The low end stands for greater sensitivity of the cells, the high end for lower sensitivity of the cells.

On to `CCCCCC[C@H](C)NC(=O)c1ccc(Nc2nc3ccccc3c3occc23)cc1`, for which the GI50 with DU-145 prostate was 3.07 µM; in the test with KM12 colon it was 4.27 µM; in the test on MDA-MB-435 it was 2.9 µM; in the test on NCI-H522 lung, 2.5 µM; in the test on OVCAR-5 ovarian, 5.35 µM; in the test with SK-OV-3 ovarian, 5.11 µM. The GI50 in the test with UO-31 renal was 0.596 µM. The TGI is 8.87 µM in the test on DU-145 prostate; 20.5 µM in the test on KM12 colon; 15.3 µM in the test with MDA-MB-435; 5.74 µM with NCI-H522 lung; over 100 µM with OVCAR-5 ovarian; over 100 µM in the test with SK-OV-3 ovarian. For the same compound, in the test with UO-31 renal, the TGI is 3.53 µM.
In the case of `COc1cccc(Nc2nccc(-c3cnn4ncccc34)n2)c1`, the GI50 in the test on DU-145 prostate is 0.0884 µM; in the test with KM12 colon, 0.0629 µM; in the test on MDA-MB-435, 0.0609 µM; in the test with NCI-H522 lung, 0.122 µM; in the test on OVCAR-5 ovarian, 0.0812 µM; in the test on SK-OV-3 ovarian, 0.151 µM. In addition, the 50% growth inhibitory concentration (GI50) in the test with UO-31 renal is 0.0707 µM. Moreover, the TGI in the test with DU-145 prostate was over 25 µM; in the test with KM12 colon, 0.367 µM; with MDA-MB-435, 0.25 µM; with NCI-H522 lung, 0.767 µM; with OVCAR-5 ovarian it was over 25 µM; in the test with SK-OV-3 ovarian, over 25 µM. In the test with UO-31 renal, this compound had a TGI of 0.21 µM.
For `C=CCc1c(O)c(C(=O)/C=C/c2ccccc2)c(OC)c2ccoc12`, the GI50 was 4.92 µM with DU-145 prostate; 4.06 µM in the test on KM12 colon; 2.78 µM in the test with MDA-MB-435; 2.15 µM in the test with NCI-H522 lung; 3.22 µM in the test with OVCAR-5 ovarian; 8.08 µM in the test on SK-OV-3 ovarian. Further, the GI50 in the test on UO-31 renal is 2.89 µM. Moreover, the TGI in the test with DU-145 prostate was determined as 18.1 µM; in the test on KM12 colon, 13.6 µM; with MDA-MB-435 it was 10.9 µM; in the test with NCI-H522 lung, 9.28 µM; in the test on OVCAR-5 ovarian, 12.7 µM; in the test on SK-OV-3 ovarian, 21.2 µM. In the test with UO-31 renal, this compound yielded a TGI of 14.5 µM.
As to `Fc1ccc(Nc2nc3ccccc3c3occc23)cc1`, the GI50 in the test on DU-145 prostate was 14.4 µM; in the test on KM12 colon, 1.9 µM; in the test on MDA-MB-435, 4.02 µM; in the test with NCI-H522 lung, 13.7 µM; in the test on OVCAR-5 ovarian, 10.1 µM; with SK-OV-3 ovarian it was 5.16 µM. Besides, the GI50 with UO-31 renal is 12.4 µM. For the same compound, the concentration for total growth inhibition (TGI) turned out to be 27.5 µM with DU-145 prostate; 6.23 µM in the test with KM12 colon; 15.6 µM with MDA-MB-435; 27.8 µM in the test with NCI-H522 lung; 21.8 µM in the test with OVCAR-5 ovarian; 18.4 µM with SK-OV-3 ovarian. Moreover, the TGI in the test on UO-31 renal stood at 27.8 µM.
As to `O=C(O[C@H]1CCN2C[C@H]3C[C@H](CN4C(=O)CCC[C@H]34)[C@@H]2C1)c1ccc(O)cc1`, the total growth inhibition concentration (TGI) with DU-145 prostate, with KM12 colon, in the test with MDA-MB-435, in the test on NCI-H522 lung, in the test on OVCAR-5 ovarian and in the test on SK-OV-3 ovarian was over 100 µM each time. In the test with UO-31 renal, the TGI was over 100 µM.
In the case of `COc1cc(/C=C2\C[C@H]3[C@@H]4CC=C5C[C@@H](OC(C)=O)CC[C@]5(C)[C@H]4CC[C@]3(C)[C@H]2OC(C)=O)ccc1OCCN1CCCC1`, the GI50 with DU-145 prostate was 1.3 µM; with KM12 colon it was 8.81 µM; in the test with MDA-MB-435 it was 13.3 µM; with NCI-H522 lung it was 18.1 µM; in the test on OVCAR-5 ovarian, 10 µM; in the test with UO-31 renal it was 13.1 µM. Also, the total growth inhibition concentration (TGI) in the test on DU-145 prostate was 9.69 µM; in the test on KM12 colon it was 17.7 µM; with MDA-MB-435 it was 27.2 µM; in the test with NCI-H522 lung it was over 50 µM; with OVCAR-5 ovarian, 20.1 µM; in the test on UO-31 renal it was 28.9 µM.
For the compound `O=C1NC(c2cccc(OCc3ccccc3)c2)Nc2ccccc21` (stereo not drawn), the TGI with KM12 colon was 73.9 µM; with NCI-H522 lung, 0.636 µM; in the test on OVCAR-5 ovarian, over 22.7 µM; in the test on SK-OV-3 ovarian, 5.87 µM; in the test on UO-31 renal it was 55 µM.
Consider `Cc1cc(Cl)cc(Cc2cc(Cl)cc(C)c2O)c1O`, for which the GI50 with DU-145 prostate is 3.47 µM; in the test on KM12 colon, 2.85 µM; in the test on MDA-MB-435 it was 2.05 µM; with NCI-H522 lung, 1.76 µM; in the test on OVCAR-5 ovarian, 3.35 µM; in the test on SK-OV-3 ovarian, 3.18 µM. Moreover, in the test with UO-31 renal, the GI50 was 2.06 µM. For the same compound, the concentration for total growth inhibition (TGI) in the test with DU-145 prostate amounted to 17 µM; with KM12 colon, 10.2 µM; with MDA-MB-435 it was 6.39 µM; with NCI-H522 lung, 6.65 µM; in the test on OVCAR-5 ovarian it was 12.3 µM; with SK-OV-3 ovarian, 8.89 µM. For the same compound, the TGI in the test on UO-31 renal was 10.6 µM.
Turning to `CCC[CH2][Pb]([Cl])([CH2]CCC)[CH2]CCC`, the GI50 with DU-145 prostate is 0.0978 µM; with KM12 colon it was 0.0326 µM; in the test with MDA-MB-435, 0.0178 µM; with NCI-H522 lung, 0.0321 µM; in the test on OVCAR-5 ovarian, 0.034 µM; in the test on SK-OV-3 ovarian, 0.12 µM. In addition, in the test with UO-31 renal, the GI50 is 0.031 µM. In addition, the TGI is 0.22 µM in the test with DU-145 prostate; 0.081 µM with KM12 colon; 0.0366 µM in the test on MDA-MB-435; 0.104 µM in the test on NCI-H522 lung; 0.134 µM in the test on OVCAR-5 ovarian; 0.257 µM in the test on SK-OV-3 ovarian. The TGI in the test with UO-31 renal turned out to be 0.0809 µM.
Consider `O=[N+]([O-])c1cc2c([N+](=O)[O-])cccc2o1`, for which the TGI in the test with DU-145 prostate stood at 42 µM; in the test with KM12 colon it was 34.5 µM; in the test with MDA-MB-435 it was 53.8 µM; in the test with NCI-H522 lung, 1.92 µM; in the test with SK-OV-3 ovarian, 31.3 µM; with UO-31 renal it was 3.98 µM.
In the case of `C[C@@H](Oc1cc(-n2cnc3ccc(OC[C@@H](O)CO)cc32)sc1C(N)=O)c1ccccc1Cl`, the GI50 in the test with KM12 colon was 0.0641 µM; in the test with OVCAR-5 ovarian it was 0.414 µM; with SK-OV-3 ovarian, 0.123 µM; in the test with UO-31 renal, 8.39 µM. Also, the concentration for total growth inhibition (TGI) in the test on KM12 colon, in the test on OVCAR-5 ovarian, in the test with SK-OV-3 ovarian and in the test with UO-31 renal was over 25 µM in each case.
Turning to `COc1ccc(N(C)c2nc(Cl)nc3cnn(C)c23)cc1`, the GI50 with DU-145 prostate was 0.0171 µM; in the test with KM12 colon, under 0.01 µM; in the test with NCI-H522 lung it was under 0.01 µM; in the test on OVCAR-5 ovarian, 0.0379 µM; in the test on SK-OV-3 ovarian, under 0.01 µM; with UO-31 renal it was under 0.0383 µM. Further, the TGI in the test on DU-145 prostate is over 100 µM; in the test on KM12 colon, over 100 µM; in the test on OVCAR-5 ovarian, over 100 µM; with SK-OV-3 ovarian, over 100 µM; in the test on UO-31 renal, over 95.5 µM.
